{"source": "patent US20130189366A1", "about": "“DRUG DELIVERY SYSTEMS AND METHODS OF USE” (Brown University, priority 2012, published 2013)", "key": {"[1]": {"system": "tetracycline inducible gene expression system (CHO-K1 Tet-IGF1 cells)", "assay": "DOX-induced IGF-1 release from CHO-K1 Tet-IGF1 cells (ELISA)", "assay_type": "cell-based, Chinese hamster", "details": "encapsulated and unencapsulated CHO-K1 Tet-IGF1 cells, 24 hours", "experimental": "Chinese hamster ovary cells (CHO-K1 Tet-On, Clontech Laboratories, Mountain View, Calif.), stably transfected to express the transactivator protein (rtTA) for a tetracycline inducible gene expression system, were cultured at 37° C. and 5% CO2 in DMEM supplemented with 10% tetracycline-free FBS (Clontech), 1% penicillin/streptomycin (Invitrogen, Carlsbad, Calif.), and 200 μg/mL G418 (Sigma-Aldrich). All cell counting was done using Trypan Blue exclusion and the COUNTESS® Automated Cell Counter (Invitrogen). […]\nThe quantity of human IGF-1 from each supernatant sample was determined using ELISA (R&D Systems, Minneapolis, Minn.) and SPECTRAMAX® Absorbance plate reader (Molecular Devices, Sunnydale, Calif.). All samples were run in triplicate and amount released was normalized to one million viable cells per sample as counted at the end of each study.\nModified and unmodified cells were plated in 6-well tissue culture plates at a density of 3×10^5 cells per well (n=6 per cell type). […] At the end of the study, cells were trypsinized and counted.\nModified encapsulated and unencapsulated cells were plated into 12-well tissue culture plates. […] At the end of the study, cells were trypsinized and counted.\nEncapsulated modified and unmodified cells were plated in 12-well tissue culture plates at an equal density per well and cultured at 32° C. […] On day 10, capsules were solubilized and cells were counted."}, "[2]": {"system": "CHO-K1 Tet-IGF1 cells", "assay": "Co-culture of CHO-K1 Tet-IGF1 cells with DOX loaded PLGA microspheres or bolus DOX, IGF-1 ELISA", "assay_type": "cell-based, Chinese hamster", "details": "total 2 μg DOX over 24 hours, unencapsulated and encapsulated cultures", "experimental": "Cells were encapsulated and encapsulated cell count and viability were determined as described in Examples 1 and 2. Microencapsulated and unencapsulated CHO-K1 Tet-IGF1 cells were co-cultured with DOX loaded PLGA microspheres to assess DOX-inducible IGF-1 synthesis and delivery. Approximately 5×10^5 encapsulated or 5×10^4 unencapsulated cells were plated per well in 12-well plates. After incubating cultures for 24 hours at 37° C., medium was completely removed from each well and 2 mL fresh media containing one of the following was added to each well (n=3): 1 μg/mL DOX (Clontech), 1.6 mg of DOX loaded PLGA microspheres, 1.6 mg of unloaded PLGA control microspheres, or no DOX. The mass of spheres used in these studies was calculated to release a total of 2 μg of DOX after 24 hours of incubation as determined by the results of the cumulative in vitro release. Cultures were incubated for another 24 hours, at which time the supernatant from each culture was removed and stored at −20° C. for later measurement. For unencapsulated cultures, cells were trypsinized and counted using Trypan Blue exclusion. For encapsulated cultures, cells were collected via alginate solubilization prior to counting. IGF-1 was quantified as described in Example 2."}}, "note": "Where a name gives a salt, the structure may show the parent alone."}
{"smiles": "C[C@H]1c2cccc(O)c2C(=O)C2=C(O)[C@]3(O)C(=O)C(C(N)=O)=C(O)[C@@H](N(C)C)[C@@H]3[C@@H](O)[C@@H]21", "note": "[DOX, doxycycline hydrochloride]", "values": [{"measurement": "DOX concentration giving detectable IGF-1 release", "setting": "[1]", "value": "≥ 0.125", "unit": "µg/mL"}, {"measurement": "IGF-1 synthesis and delivery after 24 hours", "setting": "[2]", "value": "induced"}]}
